# From BigSolDB 2.1
smiles,measurement,setting,value
Cc1cc(C)nc(Nc2ccccc2)n1,solubility (mole fraction),"in cyclohexane, 283.15 K",0.00583
same,solubility (mole fraction),"in cyclohexane, 288.15 K",0.00751
same,solubility (mole fraction),"in cyclohexane, 293.15 K",0.0095
same,solubility (mole fraction),"in cyclohexane, 298.15 K",0.0123
same,solubility (mole fraction),"in cyclohexane, 303.15 K",0.0157
same,solubility (mole fraction),"in cyclohexane, 308.15 K",0.0213
same,solubility (mole fraction),"in cyclohexane, 313.15 K",0.0304
same,solubility (mole fraction),"in cyclohexane, 318.15 K",0.0435
same,solubility (mole fraction),"in cyclohexane, 323.15 K",0.0614
same,solubility (mole fraction),"in ethanol, 283.15 K",0.0146
same,solubility (mole fraction),"in ethanol, 288.15 K",0.0175
same,solubility (mole fraction),"in ethanol, 293.15 K",0.0211
same,solubility (mole fraction),"in ethanol, 298.15 K",0.0267
same,solubility (mole fraction),"in ethanol, 303.15 K",0.0332
same,solubility (mole fraction),"in ethanol, 308.15 K",0.0438
same,solubility (mole fraction),"in ethanol, 313.15 K",0.0577
same,solubility (mole fraction),"in ethanol, 318.15 K",0.0785
same,solubility (mole fraction),"in ethanol, 323.15 K",0.112
same,solubility (mole fraction),"in isobutanol, 283.15 K",0.0148
same,solubility (mole fraction),"in isobutanol, 288.15 K",0.0178
same,solubility (mole fraction),"in isobutanol, 293.15 K",0.0236
same,solubility (mole fraction),"in isobutanol, 298.15 K",0.028
same,solubility (mole fraction),"in isobutanol, 303.15 K",0.0345
same,solubility (mole fraction),"in isobutanol, 308.15 K",0.0454
same,solubility (mole fraction),"in isobutanol, 313.15 K",0.0652
same,solubility (mole fraction),"in isobutanol, 318.15 K",0.0937
same,solubility (mole fraction),"in isobutanol, 323.15 K",0.13
same,solubility (mole fraction),"in isopropanol, 283.15 K",0.0103
same,solubility (mole fraction),"in isopropanol, 288.15 K",0.0126
same,solubility (mole fraction),"in isopropanol, 293.15 K",0.016
same,solubility (mole fraction),"in isopropanol, 298.15 K",0.0198
same,solubility (mole fraction),"in isopropanol, 303.15 K",0.025
same,solubility (mole fraction),"in isopropanol, 308.15 K",0.0324
same,solubility (mole fraction),"in isopropanol, 313.15 K",0.0429
same,solubility (mole fraction),"in isopropanol, 318.15 K",0.0611
same,solubility (mole fraction),"in isopropanol, 323.15 K",0.0861
same,solubility (mole fraction),"in methanol, 283.15 K",0.0138
same,solubility (mole fraction),"in methanol, 288.15 K",0.0162
same,solubility (mole fraction),"in methanol, 293.15 K",0.0193
same,solubility (mole fraction),"in methanol, 298.15 K",0.0245
same,solubility (mole fraction),"in methanol, 303.15 K",0.0311
same,solubility (mole fraction),"in methanol, 308.15 K",0.0418
same,solubility (mole fraction),"in methanol, 313.15 K",0.0568
same,solubility (mole fraction),"in methanol, 318.15 K",0.0765
same,solubility (mole fraction),"in methanol, 323.15 K",0.107
same,solubility (mole fraction),"in n-butanol, 283.15 K",0.0193
same,solubility (mole fraction),"in n-butanol, 288.15 K",0.0251
same,solubility (mole fraction),"in n-butanol, 293.15 K",0.0317
same,solubility (mole fraction),"in n-butanol, 298.15 K",0.0389
same,solubility (mole fraction),"in n-butanol, 303.15 K",0.0498
same,solubility (mole fraction),"in n-butanol, 308.15 K",0.0638
same,solubility (mole fraction),"in n-butanol, 313.15 K",0.0813
same,solubility (mole fraction),"in n-butanol, 318.15 K",0.112
same,solubility (mole fraction),"in n-butanol, 323.15 K",0.145
same,solubility (mole fraction),"in n-propanol, 283.15 K",0.0179
same,solubility (mole fraction),"in n-propanol, 288.15 K",0.0215
same,solubility (mole fraction),"in n-propanol, 293.15 K",0.0264
same,solubility (mole fraction),"in n-propanol, 298.15 K",0.0316
same,solubility (mole fraction),"in n-propanol, 303.15 K",0.037
same,solubility (mole fraction),"in n-propanol, 308.15 K",0.0481
same,solubility (mole fraction),"in n-propanol, 313.15 K",0.0682
same,solubility (mole fraction),"in n-propanol, 318.15 K",0.0971
same,solubility (mole fraction),"in n-propanol, 323.15 K",0.131
